Legend:
CCRF-CEM = experiment: NCI-60 SRB screen; type: cell-based; details: Homo sapiens, single dose 10^−5 M, read-out: Growth inhibition (%)
HL-60(TB) = experiment: NCI-60 SRB screen; type: cell-based, human; details: Homo sapiens; HL-60 (TB); single dose 10^−5 M; read-out: Growth inhibition (%)
K-562 = experiment: NCI-60 SRB screen; type: cell-based, human; details: Homo sapiens, K562; K-562; single dose 10^−5 M; read-out: Growth inhibition (%)
MOLT-4 = experiment: NCI-60 SRB screen; type: cell-based; details: Homo sapiens; MOLT-4; single dose 10^−5 M; read-out: Growth inhibition (%)
A549/ATCC = experiment: NCI-60 SRB screen; type: cell-based, human; details: Homo sapiens, single dose 10^−5 M, read-out: Growth inhibition (%)
EKVX = experiment: NCI-60 SRB screen; type: cell-based, human; details: Homo sapiens, single dose 10^−5 M, read-out: Growth inhibition (%)
HOP-62 = experiment: NCI-60 SRB screen; type: cell-based, human; details: Homo sapiens; HOP-62; single dose 10^−5 M; read-out: Growth inhibition (%)
HOP-92 = experiment: NCI-60 SRB screen; type: cell-based, human; details: Homo sapiens; HOP-92; single dose 10^−5 M; read-out: Growth inhibition (%)
NCI-H226 = experiment: NCI-60 SRB screen; type: cell-based, human; details: Homo sapiens; NCI-H226; single dose 10^−5 M; read-out: Growth inhibition (%)
NCI-H23 = experiment: NCI-60 SRB screen; type: cell-based, human; details: Homo sapiens; NCI-H23; single dose 10^−5 M; read-out: Growth inhibition (%)
NCI-H322M = experiment: NCI-60 SRB screen; type: cell-based, human; details: Homo sapiens, single dose 10^−5 M, read-out: Growth inhibition (%)
NCI-H460 = experiment: NCI-60 SRB screen; type: cell-based, human; details: Homo sapiens; NCI-H460; single dose 10^−5 M; read-out: Growth inhibition (%)
NCI-H522 = experiment: NCI-60 SRB screen; type: cell-based, human; details: Homo sapiens; NCI-H522; single dose 10^−5 M; read-out: Growth inhibition (%)
COLO 205 = experiment: NCI-60 SRB screen; type: cell-based, human; details: Homo sapiens; COLO 205; single dose 10^−5 M; read-out: Growth inhibition (%)
HCC-2998 = experiment: NCI-60 SRB screen; type: cell-based, human; details: Homo sapiens; HCC-2998; single dose 10^−5 M; read-out: Growth inhibition (%)
HCT-116 = experiment: NCI-60 SRB screen; type: cell-based, human; details: Homo sapiens; HCT-116; single dose 10^−5 M; read-out: Growth inhibition (%)
HCT-15 = experiment: NCI-60 SRB screen; type: cell-based, human; details: Homo sapiens; HCT-15; single dose 10^−5 M; read-out: Growth inhibition (%)
HT-29 = experiment: NCI-60 SRB screen; type: cell-based; details: Homo sapiens; HT-29; single dose 10^−5 M; read-out: Growth inhibition (%)
KM12 = experiment: NCI-60 SRB screen; type: cell-based, human; details: Homo sapiens; KM12; single dose 10^−5 M; read-out: Growth inhibition (%)
SW-620 = experiment: NCI-60 SRB screen; type: cell-based; details: Homo sapiens; SW-620; single dose 10^−5 M; read-out: Growth inhibition (%)
SF-268 = experiment: NCI-60 SRB screen; type: cell-based, human; details: Homo sapiens; SF-268; single dose 10^−5 M; read-out: Growth inhibition (%)
SF-295 = experiment: NCI-60 SRB screen; type: cell-based, human; details: Homo sapiens; SF-295; single dose 10^−5 M; read-out: Growth inhibition (%)
LOX IMVI = experiment: NCI-60 SRB screen; type: cell-based, human; details: Homo sapiens, single dose 10^−5 M, read-out: Growth inhibition (%)
MALME-3M = experiment: NCI-60 SRB screen; type: cell-based, human; details: Homo sapiens, single dose 10^−5 M, read-out: Growth inhibition (%)
M14 = experiment: NCI-60 SRB screen; type: cell-based, human; details: Homo sapiens; M14; single dose 10^−5 M; read-out: Growth inhibition (%)
SK-MEL-2 = experiment: NCI-60 SRB screen; type: cell-based, human; details: Homo sapiens; SK-MEL-2; single dose 10^−5 M; read-out: Growth inhibition (%)
SK-MEL-28 = experiment: NCI-60 SRB screen; type: cell-based; details: Homo sapiens; SK-MEL-28; single dose 10^−5 M; read-out: Growth inhibition (%)
SK-MEL-5 = experiment: NCI-60 SRB screen; type: cell-based, human; details: Homo sapiens; SK-MEL-5; single dose 10^−5 M; read-out: Growth inhibition (%)
UACC-257 = experiment: NCI-60 SRB screen; type: cell-based, human; details: Homo sapiens, UACC-257; UACC-275 (so in the source); single dose 10^−5 M; read-out: Growth inhibition (%)
UACC-62 = experiment: NCI-60 SRB screen; type: cell-based, human; details: Homo sapiens; UACC-62; single dose 10^−5 M; read-out: Growth inhibition (%)
IGROV1 = experiment: NCI-60 SRB screen; type: cell-based, human; details: Homo sapiens, IGROV-1; IGROV1; single dose 10^−5 M; read-out: Growth inhibition (%)
OVCAR-3 = experiment: NCI-60 SRB screen; type: cell-based, human; details: Homo sapiens; OVCAR-3; single dose 10^−5 M; read-out: Growth inhibition (%)
OVCAR-4 = experiment: NCI-60 SRB screen; type: cell-based, human; details: Homo sapiens; OVCAR-4; single dose 10^−5 M; read-out: Growth inhibition (%)
OVCAR-8 = experiment: NCI-60 SRB screen; type: cell-based, human; details: Homo sapiens; OVCAR-8; single dose 10^−5 M; read-out: Growth inhibition (%)
NCI/ADR-RES = experiment: NCI-60 SRB screen; type: cell-based, human; details: Homo sapiens, single dose 10^−5 M, read-out: Growth inhibition (%)
SK-OV-3 = experiment: NCI-60 SRB screen; type: cell-based, human; details: Homo sapiens; SK-OV-3; single dose 10^−5 M; read-out: Growth inhibition (%)
786-0 = experiment: NCI-60 SRB screen; type: cell-based; details: Homo sapiens; 786-0; single dose 10^−5 M; read-out: Growth inhibition (%)
ACHN = experiment: NCI-60 SRB screen; type: cell-based; details: Homo sapiens, single dose 10^−5 M, read-out: Growth inhibition (%)
CAKI-1 = experiment: NCI-60 SRB screen; type: cell-based, human; details: Homo sapiens; CAKI-1; single dose 10^−5 M; read-out: Growth inhibition (%)
RXF 393 = experiment: NCI-60 SRB screen; type: cell-based, human; details: Homo sapiens; RXF 393; single dose 10^−5 M; read-out: Growth inhibition (%)
SN12C = experiment: NCI-60 SRB screen; type: cell-based, human; details: Homo sapiens, SN12C; SN 12 C; single dose 10^−5 M; read-out: Growth inhibition (%)
TK-10 = experiment: NCI-60 SRB screen; type: cell-based, human; details: Homo sapiens; TK-10; single dose 10^−5 M; read-out: Growth inhibition (%)
UO-31 = experiment: NCI-60 SRB screen; type: cell-based, human; details: Homo sapiens; UO-31; single dose 10^−5 M; read-out: Growth inhibition (%)
[1] = test system: panel of 60 cancer cell lines; experiment: NCI-60 SRB screen, mean or range over the panel; type: cell-based, human; details: Homo sapiens; mean over the cell lines; single dose 10^−5 M; read-out: Mean growth inhibition (%)

## O=C1NC(c2cccc([N+](=O)[O-])c2)c2sc3c(F)cccc3c2C1N1CCCCC1 (centres unmarked) [Compound 6c, 8-Fluoro-1-(3-nitrophenyl)-4-(piperidin-1-yl)-1,2-dihydro[1]benzothieno [2,3-c]pyridin-3(4H)-one]
CCRF-CEM
  inhibition at 10 µM: 1.84%
HL-60(TB)
  inhibition at 10 µM: -17%
K-562
  inhibition at 10 µM: 6.11%
MOLT-4
  inhibition at 10 µM: 8.91%
A549/ATCC
  inhibition at 10 µM: -0.32%
EKVX
  inhibition at 10 µM: 5.86%
HOP-62
  inhibition at 10 µM: 11.5%
HOP-92
  inhibition at 10 µM: 14.1%
NCI-H226
  inhibition at 10 µM: 8.71%
NCI-H23
  inhibition at 10 µM: 5.16%
NCI-H322M
  inhibition at 10 µM: 2.6%
NCI-H460
  inhibition at 10 µM: -0.58%
NCI-H522
  inhibition at 10 µM: 14%
COLO 205
  inhibition at 10 µM: -12.7%
HCC-2998
  inhibition at 10 µM: 2.82%
HCT-116
  inhibition at 10 µM: 20.6%
HCT-15
  inhibition at 10 µM: 3.74%
HT-29
  inhibition at 10 µM: 9%
KM12
  inhibition at 10 µM: 2.91%
SW-620
  inhibition at 10 µM: 7.46%
SF-268
  inhibition at 10 µM: 2.64%
SF-295
  inhibition at 10 µM: 2.28%
LOX IMVI
  inhibition at 10 µM: 2.5%
MALME-3M
  inhibition at 10 µM: -1.85%
M14
  inhibition at 10 µM: 1.9%
SK-MEL-2
  inhibition at 10 µM: -8.06%
SK-MEL-28
  inhibition at 10 µM: -12.4%
SK-MEL-5
  inhibition at 10 µM: 1.15%
UACC-257
  inhibition at 10 µM: -6.77%
UACC-62
  inhibition at 10 µM: 4.85%
IGROV1
  inhibition at 10 µM: 20.7%
OVCAR-3
  inhibition at 10 µM: -2.74%
OVCAR-4
  inhibition at 10 µM: -4.39%
OVCAR-8
  inhibition at 10 µM: 5%
NCI/ADR-RES
  inhibition at 10 µM: -1.66%
SK-OV-3
  inhibition at 10 µM: -0.84%
786-0
  inhibition at 10 µM: -6.36%
ACHN
  inhibition at 10 µM: 9.32%
CAKI-1
  inhibition at 10 µM: 17.6%
RXF 393
  inhibition at 10 µM: 6.16%
SN12C
  inhibition at 10 µM: 2.45%
TK-10
  inhibition at 10 µM: -42.2%
UO-31
  inhibition at 10 µM: 32.2%
[1]
  inhibition at 10 µM: 2.54%

Reference: article PMC8330742, “New benzothieno[2,3-c]pyridines as non-steroidal CYP17 inhibitors: design, synthesis, anticancer screening, apoptosis induction, and in silico ADME profile studies” (Journal of Enzyme Inhibition and Medicinal Chemistry, 2021)
